Legend:
[1] = In vitro dissolution studies; format: physicochemical; settings: phosphate buffer pH 6.8
[2] = Single-dose crossover bioavailability study, REP plasma levels by LC-MS/MS; format: in vivo, rabbits; settings: male, albino, rabbit, po
[3] = cited from earlier work

`CCOc1cc(CC(=O)N[C@@H](CC(C)C)c2ccccc2N2CCCCC2)ccc1C(=O)O` [Plain REP, Repaglinide] gave a percentage drug released ([1]; optimized formulae, alginate film and plain drug, within 30 minutes) of 22.981%, a release rate ([1]; within 10 minutes) of 8.166% and a release rate ([1]; within 15 minutes) of 19.65%. The AUC(0-inf) [2] was 95400 ± 7220 ng·h/mL, the AUC(0-t) [2] was 93400 ± 5610 ng·h/mL and the Cmax [2] was 31900 ± 1620 ng/mL. For the same compound, the Tmax [2] was 1 ± 0.143 h, the half-life [2] was 1.31 ± 0.117 h and the k el [2] was 0.000147 s⁻¹. The “Biopharmaceutics Classification System (BCS) class” value [3] was “class II”.

Source: article PMC6432887 (Drug Design, Development and Therapy, 2019)
